According to patent US8912176B2 (Evotec AG, priority 2009, dated 2014):

biological target: human H3 receptor (Homo sapiens, UniProt Q9Y5N1); test: cAMP quantification assay for human H3 receptor (DiscoveRx cAMP XS+)
Sequence (Q9Y5N1 whole entry): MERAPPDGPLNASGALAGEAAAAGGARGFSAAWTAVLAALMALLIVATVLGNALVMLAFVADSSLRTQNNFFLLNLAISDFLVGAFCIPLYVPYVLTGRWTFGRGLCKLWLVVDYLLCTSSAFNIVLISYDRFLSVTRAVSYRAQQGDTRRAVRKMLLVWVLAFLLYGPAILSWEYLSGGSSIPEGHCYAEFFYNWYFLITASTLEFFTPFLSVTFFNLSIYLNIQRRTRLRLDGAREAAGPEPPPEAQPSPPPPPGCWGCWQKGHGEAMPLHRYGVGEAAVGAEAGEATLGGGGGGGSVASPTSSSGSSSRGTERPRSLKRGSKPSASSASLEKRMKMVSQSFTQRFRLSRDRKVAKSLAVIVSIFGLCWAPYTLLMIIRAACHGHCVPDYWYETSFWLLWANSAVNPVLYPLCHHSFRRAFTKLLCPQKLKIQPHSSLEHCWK

IC50	SMILES
< 50 nM	Cc1nc(-c2cccc(C(=O)N3CC(C(=O)N4CCCN(C5CCC5)CC4)C3)c2)cs1 [Example 46, 1-cyclobutyl-4-[(1-{[3-(2-methyl-1,3-thiazol-4-yl)phenyl]carbonyl}azetidin-3-yl)carbonyl]-1,4-diazepane]
< 50 nM	N#Cc1ccc(CNC(=O)N2CC(C(=O)N3CCCN(C4CCC4)CC3)C2)cc1 [Example 66, N-(4-cyanobenzyl)-3-[(4-cyclobutyl-1,4-diazepan-1-yl)carbonyl]azetidine-1-carboxamide]
< 50 nM	CN(Cc1ccc(F)cc1)C(=O)N1CC(C(=O)N2CCCN(C3CCC3)CC2)C1 [Example 62, 3-[(4-cyclobutyl-1,4-diazepan-1-yl)carbonyl]-N-(4-fluorobenzyl)-N-methylazetidine-1-carboxamide]
< 50 nM	CCC(=O)N1CC(C(=O)N2CCCN(C3CCC3)CC2)C1 [Example 71, 1-cyclobutyl-4-[(1-propanoylazetidin-3-yl)carbonyl]-1,4-diazepane]
< 50 nM	CC(C)(O)c1ccc(C(=O)N2CC(C(=O)N3CCCN(C4CCC4)CC3)C2)cn1 [Example 76, 2-[5-({3-[(4-cyclobutyl-1,4-diazepan-1-yl)carbonyl]azetidin-1-yl}carbonyl)pyridin-2-yl]propan-2-ol]
< 50 nM	O=C(c1ccc(Oc2ccccc2)cc1)N1CC(C(=O)N2CCCN(C3CCC3)CC2)C1 [Example 39, 1-cyclobutyl-4-({1-[(4-phenoxyphenyl)carbonyl]azetidin-3-yl}carbonyl)-1,4-diazepane]
< 50 nM	O=C(c1ccc(-n2ccnc2)cc1)N1CC(C(=O)N2CCCN(C3CCC3)CC2)C1 [Example 72, 1-cyclobutyl-4-[(1-{[4-(1H-imidazol-1-yl)phenyl]carbonyl}azetidin-3-yl)carbonyl]-1,4-diazepane]
< 50 nM	CC(=O)N1CC(C(=O)N2CCCN(C3CCC3)CC2)C1 [Example 70, 1-[(1-acetylazetidin-3-yl)carbonyl]-4-cyclobutyl-1,4-diazepane]
< 50 nM	Cc1nc(-c2ccc(C(=O)N3CC(C(=O)N4CCCN(C5CCC5)CC4)C3)cc2)cs1 [Example 36, 1-cyclobutyl-4-[(1-{[4-(2-methyl-1,3-thiazol-4-yl)phenyl]carbonyl}azetidin-3-yl)carbonyl]-1,4-diazepane]
< 50 nM	O=C(c1ccc(-n2cncn2)c(F)c1)N1CC(C(=O)N2CCCN(C3CCC3)CC2)C1 [Example 78, 1-cyclobutyl-4-[(1-{[3-fluoro-4-(1H-1,2,4-triazol-1-yl)phenyl]carbonyl}azetidin-3-yl)carbonyl]-1,4-diazepane]
< 50 nM	CNC(=O)c1ccc(C(=O)N2CC(C(=O)N3CCCN(C4CCC4)CC3)C2)cn1 [Example 77, 5-({3-[(4-cyclobutyl-1,4-diazepan-1-yl)carbonyl]azetidin-1-yl}carbonyl)-N-methylpyridine-2-carboxamide]
100 to 5000 nM	Cc1ccc(C(=O)N2CC(C(=O)N3CCN(C4CCC4)CC3)C2)cn1 [Example 87, 1-cyclobutyl-4-({1-[(6-methylpyridin-3-yl)carbonyl]azetidin-3-yl}carbonyl)piperazine]
< 50 nM	Cc1ccc(C(=O)N2CC(C(=O)N3CCCN(C4CCCCC4)CC3)C2)cn1 [Example 82, 1-cyclohexyl-4-({1-[(6-methylpyridin-3-yl)carbonyl]azetidin-3-yl}carbonyl)-1,4-diazepane]
< 50 nM	Cc1cc(C(=O)N2CC(C(=O)N3CCCN(C4CCC4)CC3)C2)ccn1 [Example 75, 1-cyclobutyl-4-({1-[(2-methylpyridin-4-yl)carbonyl]azetidin-3-yl}carbonyl)-1,4-diazepane]
< 50 nM	O=C(c1ccc(-n2cncn2)cc1)N1CC(C(=O)N2CCCN(C3CCC3)CC2)C1 [Example 73, 1-cyclobutyl-4-[(1-{[4-(1H-1,2,4-triazol-1-yl)phenyl]carbonyl}azetidin-3-yl)carbonyl]-1,4-diazepane]
< 50 nM	Cc1nc(-c2ccc(C(=O)N3CC(C(=O)N4CCCN(C5CCC5)CC4)C3)cc2)no1 [Example 37, 1-cyclobutyl-4-[(1-{[4-(5-methyl-1,2,4-oxadiazol-3-yl)phenyl]carbonyl}azetidin-3-yl)carbonyl]-1,4-diazepane]

More lines, now with the values behind:

SMILES	IC50
O=C(c1ccc(-n2cccn2)nc1)N1CC(C(=O)N2CCCN(C3CCC3)CC2)C1 [Example 14, 1-cyclobutyl-4-[(1-{[6-(1H-pyrazol-1-yl)pyridin-3-yl]carbonyl}azetidin-3-yl)carbonyl]-1,4-diazepane]	< 50 nM
Cc1cc(C)n(-c2ccc(C(=O)N3CC(C(=O)N4CCCN(C5CCC5)CC4)C3)cc2)n1 [Example 30, 1-cyclobutyl-4-[(1-{[4-(3,5-dimethyl-1H-pyrazol-1-yl)phenyl]carbonyl}azetidin-3-yl)carbonyl]-1,4-diazepane]	< 50 nM
O=C(CC1CC1)N1CC(C(=O)N2CCCN(C3CCC3)CC2)C1 [Example 32, 1-cyclobutyl-4-{[1-(cyclopropylacetyl)azetidin-3-yl]carbonyl}-1,4-diazepane]	< 50 nM
O=C(CN1CCS(=O)(=O)CC1)N1CC(C(=O)N2CCCN(C3CCC3)CC2)C1 [Example 18, 1-cyclobutyl-4-({1-[(1,1-dioxidothiomorpholin-4-yl)acetyl]azetidin-3-yl}carbonyl)-1,4-diazepane]	< 50 nM
O=C(C1CN(S(=O)(=O)CC2CCCC2)C1)N1CCCN(C2CCC2)CC1 [Example 25, 1-cyclobutyl-4-({1-[(cyclopentylmethyl)sulfonyl]azetidin-3-yl}carbonyl)-1,4-diazepane]	< 50 nM
Cc1cnc(C(=O)N2CC(C(=O)N3CCCN(C4CCC4)CC3)C2)cn1 [Example 9, 1-cyclobutyl-4-({1-[(5-methylpyrazin-2-yl)carbonyl]azetidin-3-yl}carbonyl)-1,4-diazepane]	< 50 nM
COC(=O)c1ccc(C(=O)N2CC(C(=O)N3CCCN(C4CCC4)CC3)C2)cn1 [Example 7, methyl 5-({3-[(4-cyclobutyl-1,4-diazepan-1-yl)carbonyl]azetidin-1-yl}carbonyl)pyridine-2-carboxylate]	< 50 nM
N#Cc1ccc(OC(=O)N2CC(C(=O)N3CCCN(C4CCC4)CC3)C2)cc1 [Example 69, 4-cyanophenyl 3-[(4-cyclobutyl-1,4-diazepan-1-yl)carbonyl]azetidine-1-carboxylate]	< 50 nM
Cc1ccc(OCC(=O)N2CC(C(=O)N3CCCN(C4CCC4)CC3)C2)cn1 [Example 21, 1-cyclobutyl-4-[(1-{[(6-methylpyridin-3-yl)oxy]acetyl}azetidin-3-yl)carbonyl]-1,4-diazepane]	< 50 nM
O=C(c1ccc(-c2nccs2)cc1)N1CC(C(=O)N2CCCN(C3CCC3)CC2)C1 [Example 35, 1-cyclobutyl-4-[(1-{[4-(1,3-thiazol-2-yl)phenyl]carbonyl}azetidin-3-yl)carbonyl]-1,4-diazepane]	< 50 nM
O=C(C1CN(C(=O)C2CCCCC2)C1)N1CCCN(C2CCC2)CC1 [Example 4, 1-cyclobutyl-4-{[1-(cyclohexylcarbonyl)azetidin-3-yl]carbonyl}-1,4-diazepane]	< 50 nM
O=C(C1CN(S(=O)(=O)C2CCCCC2)C1)N1CCCN(C2CCC2)CC1 [Example 24, 1-cyclobutyl-4-{[1-(cyclohexylsulfonyl)azetidin-3-yl]carbonyl}-1,4-diazepane]	< 50 nM
